pIC50: −log10 of the molar value. Where a name gives a salt, the structure may show the parent alone.
Tests used:
[1] = system: SARS-COV-2 strain NIV 2020-770; assay: microbe, parasite or virus in culture; assay type: cell-based; settings: for pIC50: Severe acute respiratory syndrome coronavirus 2, 72 h; for SI (selectivity index): against SARS-CoV-2
[2] = Cell cytotoxicity determination (MTT) in Vero CCL-81 cells; assay type: cell-based; settings: monkey
Method: Cell Cytotoxicity determination: 100 μL Vero CCL-81 cells were seeded on to 96 well plate at a density of 3×10^6 cells/mL. The plates were incubated for 24 hrs at 37° C. with 5% CO2. After overnight incubation the spent medium was discarded and 100 μL of different concentrations of each drugs prepared earlier from the stock was added to the respective wells in quadruplets. The plates were incubated for 72 hr at 37° C. in 5% CO2. After the incubation, the medium containing drug was discarded. The cell monolayer was washed by adding 100 μL of 1×PBS. 100 μL of plain MEM and 50 μl of MTT (2 mg/ml concentration) was added to each well. Followed by incubation for 4 hrs at 37° C. in 5% CO2. At the end of incubation, the cell supernatant was discarded and 200 μl of DMSO was added to each well to dissolve the formazan crystals. 25 μL of Sorensen's glycine buffer was added immediately to each well. The plates were incubated in dark for 30 min at room temperature. The OD was measured at 570 nm using ELISA plate reader. CC50 value was plotted using Prism Pad application.

[3] = In vitro toxicity in WI-38 cells (MTS-PMS kit); assay type: cell-based; settings: human, WI-38 human lung fibroblast cells, read-out: IC50 (cytotoxicity)
Text: (§1) The toxicity of ((((((R)-1-(6-amino-9H-purin-9-yl) propan-2-yl) oxy) methyl) (phenoxy) phosphoryl)oxy)methyl pivalate fumarate and Metabolite of compound of formula 1 in different human lung cells viz, WI-38 (human lung fibroblast cells) and Calu-3 (human lung bronchial cells) by using the MTS-PMS kit investigated.
(§2) MTS-PMS kit details (CellTiter 96@ Aqueous kit)
This is a colorimetric method for determining the number of viable cell measures viable cells in proliferation, cytotoxicity or chemosensitivity assays. The assay is composed of solutions of a novel tetrazolium compound [3-(4,5-dimethylthiazol-2-yl)-5-(3-carboxymethoxyphenyl)-2-(4-sulfophenyl)-2H-tetrazolium, inner salt; MTS] and an electron coupling reagent (phenazine methosulfate) PMS. MTS is bioreduced by cells into a formazan product that is soluble in tissue culture medium. The absorbance of the formazan product at 490 nm can be measured directly from 96-well assay plates without additional processing. The conversion of MTS into the aqueous soluble formazan product is accomplished by dehydrogenase enzymes found in metabolically active cells. The quantity of formazan product as measured by the amount of 490 nm absorbance is directly proportional to the number of living cells in culture.
Respective cells were harvested from exponential phase cultures, […] on the cell line's growth rate. After a 24 h recovery period to allow the cells to resume exponential growth. TPF or Metabolite of compound of formula 1 was applied at 6-8 concentrations in duplicate and treatment continued for different time points. After completion of incubation 20 μL/well MTS-PMS reagent was added to each well (MTS-PMS was prepared as follows: CellTiter 96@AQueous Assay Reagents MTS Solution and the PMS Solution should be thawed before use. Remove 2.0 ml of MTS Solution. Add […] of PMS Solution to the 2.0 ml of MTS Solution immediately). Following an incubation period of up to four hours, the plate was read to 490 nm. For calculations, the mean values of duplicate data were used. Sigmoidal concentration-response curves were fitted to the data points (T/C values) obtained for each cell line using 4 parameter non-linear curve fit.
Cells were harvested from exponential phase cultures, […] on the cell line's growth rate. After a 24 h recovery period to allow the cells to resume exponential growth. TPF or Metabolite of compound of formula 1 was applied at 6-8 concentrations in duplicate and treatment continued for different time points. For Calu-3 cells the treatment was the treatment was for 72 hrs while WI-38 cells were treated for 48 and 96 hrs. After the treatment of cells, 20 μL/well MTS-PMS reagent was added. Following an incubation period of up to four hours, the plate was read to 490. […]

[4] = In vitro toxicity in Calu-3 cells (MTS-PMS kit); assay type: cell-based; settings: human, Calu-3 human lung bronchial cells, read-out: IC50 (cytotoxicity)
Text: as §1, §2
This is a colorimetric method for determining the number of viable cell measures viable cells in proliferation, cytotoxicity or chemosensitivity assays. […] The absorbance of the formazan product at 490 nm can be measured directly from 96-well assay plates without additional processing. […] The quantity of formazan product as measured by the amount of 490 nm absorbance is directly proportional to the number of living cells in culture.
Respective cells were harvested from exponential phase cultures, […] on the cell line's growth rate. […] Following an incubation period of up to four hours, the plate was read to 490 nm. […]
Cells were harvested from exponential phase cultures, […] on the cell line's growth rate. […] Following an incubation period of up to four hours, the plate was read to 490. […]

[5] = system: A549 (human lung alveolar cells) monolayer
in vitro = settings: human

Structure (SMILES) | pIC50 [1] | SI (selectivity index) ([1]; window between cytotoxicity (CC50) and antiviral activity (IC50), fumarate) | SI (selectivity index) ([1]; window between cytotoxicity (CC50) and antiviral activity (IC50); fumarate)) | CC50 at 72 h [2] [µM] | IC50 at 48 h [3] [µM] | IC50 at 96 h [3] [µM] | IC50 at 72 h [4] [µM] | permeability classification [5] | P-app ([5]; apical to basal) [×10⁻⁶ cm/s] | SI (selectivity index) ([1]; window between cytotoxicity (CC50) and antiviral activity (IC50)) | SI (selectivity index) ([1]; window between cytotoxicity (CC50) and antiviral activity (IC50), listed as compound of formula 2) | Papp A→B (in vitro) [×10⁻⁶ cm/s]
C[C@H](Cn1cnc2c(N)ncnc21)OC[P@@](=O)(OCOC(=O)C(C)(C)C)Oc1ccccc1 [((((((R)-1-(6-amino-9H-purin-9-yl)propan-2-yl)oxy)methyl) (phenoxy)phosphoryl)oxy)methyl pivalate fumarate] | > 6.00 | >100 | > 100 | > 100 | > 100 | > 100 | > 100 | highly permeable | > 20 |  |  | 
C[C@H](Cn1cnc2c(N)ncnc21)OCP(=O)(O)Oc1ccccc1 [Compound of formula 2, tenphenol] | ~4.92 |  |  | > 100 | > 100 | > 100 | > 100 | moderately permeable |  | >8.33 | 8.33 | < 20

— patent publication US20240009214A1 (priority 2020, published 2024)
